# Experimental data published in PubChem BioAssay (NCI).
#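 Exposure lasted 48 hours, with cells grown in 96-well plates and compounds tested at five concentrations. GI50: concentration for 50% inhibition of growth. At the TGI there is no net growth.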
# Experiments:
# Assay in all cases: NCI tumour cell line growth inhibition, 48 h
# SK-OV-3 ovarian = system: SK-OV-3 ovarian
# SK-MEL-2 melanoma = system: SK-MEL-2 melanoma
# SK-MEL-5 melanoma = system: SK-MEL-5 melanoma
# OVCAR-5 ovarian = system: OVCAR-5 ovarian
# MALME-3M melanoma = system: MALME-3M melanoma
# TK-10 renal = system: TK-10 renal
# HCT-15 colon = system: HCT-15 colon
# M14 melanoma = system: M14 melanoma
# A549 NSCLC = system: A549 NSCLC
# OVCAR-4 ovarian = system: OVCAR-4 ovarian
# UO-31 renal = system: UO-31 renal
# KM12 colon = system: KM12 colon
# RPMI-8226 leukemia = system: RPMI-8226 leukemia
# CCRF-CEM leukemia = system: CCRF-CEM leukemia
# ACHN renal = system: ACHN renal
# SNB-19 CNS = system: SNB-19 CNS
# MDA-MB-435 = system: MDA-MB-435
# SNB-75 CNS = system: SNB-75 CNS
# SF-268 CNS = system: SF-268 CNS
# HL-60(TB) leukemia = system: HL-60(TB) leukemia
# HCC-2998 colon = system: HCC-2998 colon
# U251 CNS = system: U251 CNS
# MDA-N = system: MDA-N
# HCT-116 colon = system: HCT-116 colon
# HOP-92 NSCLC = system: HOP-92 NSCLC
# MDA-MB-231 breast = system: MDA-MB-231 breast
# BT-549 breast = system: BT-549 breast
# MOLT-4 leukemia = system: MOLT-4 leukemia
# PC-3 prostate = system: PC-3 prostate
# NCI-H226 lung = system: NCI-H226 lung
# K-562 leukemia = system: K-562 leukemia
# SK-MEL-28 melanoma = system: SK-MEL-28 melanoma
# NCI-H23 lung = system: NCI-H23 lung
# OVCAR-3 ovarian = system: OVCAR-3 ovarian
# 786-0 renal = system: 786-0 renal
# DU-145 prostate = system: DU-145 prostate
# HT29 colon = system: HT29 colon
# IGROV1 ovarian = system: IGROV1 ovarian
# RXF 393 renal = system: RXF 393 renal
# SF-539 CNS = system: SF-539 CNS
# NCI-H522 lung = system: NCI-H522 lung
# SF-295 CNS = system: SF-295 CNS
# HS 578T breast = system: HS 578T breast
# HOP-62 NSCLC = system: HOP-62 NSCLC
# UACC-62 melanoma = system: UACC-62 melanoma
# NCI-H460 lung = system: NCI-H460 lung
# UACC-257 melanoma = system: UACC-257 melanoma
# CAKI-1 renal = system: CAKI-1 renal
# T-47D breast = system: T-47D breast
# A498 renal = system: A498 renal
# SR leukemia = system: SR leukemia
# SW-620 colon = system: SW-620 colon
# EKVX NSCLC = system: EKVX NSCLC
# MCF7 breast = system: MCF7 breast
# LOX IMVI melanoma = system: LOX IMVI melanoma
# NCI/ADR-RES ovarian = system: NCI/ADR-RES ovarian
# SN12C renal = system: SN12C renal
# COLO 205 colon = system: COLO 205 colon
# OVCAR-8 ovarian = system: OVCAR-8 ovarian
structure (smiles),measurement,setting,value
CN(C)CCOc1ccc2[nH]c(C(=O)N3CC(CCl)c4c3cc(N)c3ccccc43)cc2c1 (stereo unspecified),TGI,SK-OV-3 ovarian,< 0.01 µM
same,TGI,SK-MEL-2 melanoma,< 0.01 µM
same,TGI,SK-MEL-5 melanoma,< 0.01 µM
same,TGI,OVCAR-5 ovarian,> 100 µM
same,TGI,MALME-3M melanoma,< 0.01 µM
same,TGI,TK-10 renal,> 4.64 µM
same,TGI,HCT-15 colon,> 46.9 µM
same,TGI,M14 melanoma,> 100 µM
same,TGI,A549 NSCLC,13.2 µM
same,TGI,OVCAR-4 ovarian,1.18 µM
same,TGI,UO-31 renal,< 0.01 µM
same,TGI,KM12 colon,< 0.01 µM
same,TGI,RPMI-8226 leukemia,< 0.01 µM
same,TGI,CCRF-CEM leukemia,> 100 µM
same,TGI,ACHN renal,< 0.01 µM
same,TGI,SNB-19 CNS,0.202 µM
same,TGI,MDA-MB-435,< 0.01 µM
same,TGI,SNB-75 CNS,< 0.215 µM
same,TGI,SF-268 CNS,> 4.64 µM
same,TGI,HL-60(TB) leukemia,> 100 µM
same,TGI,HCC-2998 colon,< 0.01 µM
same,TGI,U251 CNS,1.1 µM
same,TGI,MDA-N,< 0.01 µM
same,TGI,HCT-116 colon,3.63 µM
same,TGI,HOP-92 NSCLC,< 0.01 µM
same,TGI,MDA-MB-231 breast,> 100 µM
same,TGI,BT-549 breast,1.64 µM
same,TGI,MOLT-4 leukemia,< 0.01 µM
same,TGI,PC-3 prostate,3.66 µM
same,TGI,NCI-H226 lung,< 0.01 µM
same,TGI,K-562 leukemia,> 4.64 µM
same,TGI,SK-MEL-28 melanoma,< 0.01 µM
same,TGI,NCI-H23 lung,< 0.01 µM
same,TGI,OVCAR-3 ovarian,< 0.01 µM
same,TGI,786-0 renal,< 0.01 µM
same,TGI,DU-145 prostate,0.0525 µM
same,TGI,HT29 colon,1.71 µM
CC1(C)N=C(N)N=C(N)N1c1cccc(CCCCc2cccc(S(=O)(=O)F)c2)c1,GI50,IGROV1 ovarian,0.157 µM
same,TGI,IGROV1 ovarian,> 58.3 µM
same,GI50,RXF 393 renal,2.13 µM
same,TGI,RXF 393 renal,> 100 µM
same,GI50,SK-OV-3 ovarian,10.9 µM
same,TGI,SK-OV-3 ovarian,> 100 µM
same,GI50,SF-539 CNS,0.773 µM
same,TGI,SF-539 CNS,18.8 µM
same,GI50,NCI-H522 lung,2.55 µM
same,TGI,NCI-H522 lung,43.9 µM
same,GI50,SK-MEL-2 melanoma,2.73 µM
same,TGI,SK-MEL-2 melanoma,> 58.5 µM
same,GI50,SF-295 CNS,2.45 µM
same,TGI,SF-295 CNS,> 100 µM
same,GI50,SK-MEL-5 melanoma,0.535 µM
same,TGI,SK-MEL-5 melanoma,14.8 µM
same,TGI,OVCAR-5 ovarian,> 100 µM
same,GI50,MALME-3M melanoma,8.47 µM
same,TGI,MALME-3M melanoma,71.8 µM
same,GI50,HS 578T breast,51.1 µM
same,TGI,HS 578T breast,> 100 µM
same,GI50,TK-10 renal,4.85 µM
same,TGI,TK-10 renal,> 100 µM
same,GI50,HOP-62 NSCLC,3.04 µM
same,TGI,HOP-62 NSCLC,> 47.9 µM
same,GI50,UACC-62 melanoma,0.281 µM
same,TGI,UACC-62 melanoma,18 µM
same,GI50,HCT-15 colon,14.1 µM
same,TGI,HCT-15 colon,> 100 µM
same,GI50,M14 melanoma,2.92 µM
same,TGI,M14 melanoma,> 100 µM
same,GI50,NCI-H460 lung,0.327 µM
same,TGI,NCI-H460 lung,> 75.7 µM
same,GI50,A549 NSCLC,0.751 µM
same,TGI,A549 NSCLC,> 100 µM
same,GI50,UACC-257 melanoma,2.79 µM
same,TGI,UACC-257 melanoma,36.6 µM
same,GI50,OVCAR-4 ovarian,8.06 µM
same,TGI,OVCAR-4 ovarian,> 100 µM
same,GI50,UO-31 renal,> 100 µM
same,TGI,UO-31 renal,> 100 µM
same,GI50,CAKI-1 renal,20.3 µM
same,TGI,CAKI-1 renal,> 100 µM
same,GI50,KM12 colon,0.474 µM
same,TGI,KM12 colon,14.2 µM
same,GI50,RPMI-8226 leukemia,2.31 µM
same,TGI,RPMI-8226 leukemia,35.2 µM
same,GI50,CCRF-CEM leukemia,0.559 µM
same,TGI,CCRF-CEM leukemia,53.4 µM
same,GI50,ACHN renal,11.8 µM
same,TGI,ACHN renal,> 100 µM
same,GI50,SNB-19 CNS,1.53 µM
same,TGI,SNB-19 CNS,> 77.7 µM
same,GI50,MDA-MB-435,0.329 µM
same,TGI,MDA-MB-435,29 µM
same,GI50,T-47D breast,12.3 µM
same,TGI,T-47D breast,45.1 µM
same,GI50,A498 renal,7.36 µM
same,TGI,A498 renal,> 100 µM
same,GI50,SNB-75 CNS,0.98 µM
same,TGI,SNB-75 CNS,23.7 µM
same,GI50,SF-268 CNS,0.887 µM
same,TGI,SF-268 CNS,20.8 µM
same,GI50,HL-60(TB) leukemia,1.95 µM
same,TGI,HL-60(TB) leukemia,47.8 µM
same,GI50,HCC-2998 colon,3.17 µM
same,TGI,HCC-2998 colon,> 56.3 µM
same,GI50,U251 CNS,0.456 µM
same,TGI,U251 CNS,36 µM
same,GI50,SR leukemia,0.355 µM
same,TGI,SR leukemia,33.2 µM
same,GI50,SW-620 colon,0.342 µM
same,TGI,SW-620 colon,> 100 µM
same,GI50,HCT-116 colon,0.445 µM
same,TGI,HCT-116 colon,> 100 µM
same,GI50,HOP-92 NSCLC,5.48 µM
same,TGI,HOP-92 NSCLC,94 µM
same,GI50,MDA-MB-231 breast,6.6 µM
same,TGI,MDA-MB-231 breast,> 100 µM
same,GI50,BT-549 breast,0.973 µM
same,TGI,BT-549 breast,> 43.1 µM
same,GI50,MOLT-4 leukemia,3.22 µM
same,TGI,MOLT-4 leukemia,80.7 µM
same,GI50,PC-3 prostate,0.157 µM
same,TGI,PC-3 prostate,> 100 µM
same,GI50,NCI-H226 lung,8.93 µM
same,TGI,NCI-H226 lung,> 100 µM
same,GI50,K-562 leukemia,0.657 µM
same,TGI,K-562 leukemia,> 100 µM
same,GI50,EKVX NSCLC,19.2 µM
same,TGI,EKVX NSCLC,> 100 µM
same,GI50,SK-MEL-28 melanoma,4.1 µM
same,TGI,SK-MEL-28 melanoma,21.7 µM
same,GI50,MCF7 breast,0.485 µM
same,TGI,MCF7 breast,24.9 µM
same,GI50,LOX IMVI melanoma,0.424 µM
same,TGI,LOX IMVI melanoma,> 100 µM
same,GI50,NCI-H23 lung,2.39 µM
same,TGI,NCI-H23 lung,> 100 µM
same,GI50,NCI/ADR-RES ovarian,> 79.2 µM
same,TGI,NCI/ADR-RES ovarian,> 100 µM
same,GI50,OVCAR-3 ovarian,4.29 µM
same,TGI,OVCAR-3 ovarian,27.1 µM
same,GI50,786-0 renal,2.12 µM
same,TGI,786-0 renal,> 100 µM
same,GI50,SN12C renal,0.571 µM
same,TGI,SN12C renal,> 100 µM
same,GI50,DU-145 prostate,1.17 µM
same,TGI,DU-145 prostate,> 100 µM
same,GI50,COLO 205 colon,1.53 µM
same,TGI,COLO 205 colon,> 100 µM
same,GI50,OVCAR-8 ovarian,4.84 µM
same,TGI,OVCAR-8 ovarian,> 100 µM
same,GI50,HT29 colon,0.26 µM
same,TGI,HT29 colon,> 100 µM
CC1(C#N)N(C(=O)c2ccccc2)c2ccccc2N1C(=O)c1ccccc1,GI50,NCI-H522 lung,49.4 µM
same,GI50,MALME-3M melanoma,44.6 µM
same,GI50,UACC-62 melanoma,79.7 µM
same,GI50,M14 melanoma,29.3 µM
same,TGI,M14 melanoma,98.4 µM
same,GI50,UACC-257 melanoma,86.4 µM
same,GI50,OVCAR-4 ovarian,57.7 µM
same,GI50,UO-31 renal,45.1 µM
same,GI50,CAKI-1 renal,65 µM
same,GI50,RPMI-8226 leukemia,39.8 µM
same,GI50,CCRF-CEM leukemia,23.9 µM
same,TGI,CCRF-CEM leukemia,77.9 µM
same,GI50,ACHN renal,72.9 µM
same,GI50,MDA-MB-435,62.9 µM
same,GI50,T-47D breast,38.7 µM
same,GI50,HL-60(TB) leukemia,69.9 µM
same,GI50,U251 CNS,15.3 µM
same,GI50,SR leukemia,45.4 µM
same,GI50,MDA-N,79.4 µM
same,GI50,SW-620 colon,75.9 µM
same,GI50,HCT-116 colon,35.4 µM
same,GI50,HOP-92 NSCLC,52 µM
same,GI50,MDA-MB-231 breast,65.3 µM
same,GI50,MOLT-4 leukemia,22.9 µM
same,TGI,MOLT-4 leukemia,71.9 µM
same,GI50,NCI-H226 lung,91.8 µM
same,GI50,K-562 leukemia,33 µM
same,GI50,MCF7 breast,37.2 µM
same,GI50,LOX IMVI melanoma,33.6 µM
same,GI50,NCI-H23 lung,64.4 µM
same,GI50,NCI/ADR-RES ovarian,79.7 µM
same,GI50,DU-145 prostate,81.8 µM
same,GI50,COLO 205 colon,46.5 µM
same,GI50,HT29 colon,66.4 µM
